Key:
[1] = test system: angiotensin converting enzyme (ACE); assay: Inhibition of the angiotensin-induced rise in blood pressure in rats after oral administration (illustrative test, ACE inhibitory effect); type: in vivo, male rats (Spraque-Dawleg); settings: angiotensin I 300 ng/kg and angiotensin II 100 ng/kg i.v., maximum blood pressure rise vs control
Procedure: (§1) The compounds [I] according to the present invention may be expected to be useful as a […], since they have an excellent ACE inhibitory effect. This has been well evidenced by an experiment using ACE extracted from rabbit lung and purified. The ACE inhibitory effect of the compounds of the present invention was determined according to the following illustrative test and the results will be shown in the following Table 1.
In this test, male rats (Spraque-Dawleg) of 250 to 350 g in weight were used, which were raised under conditions of free access to food and water.
The day before the test, each rat was narcotized by sodium pentobarbital (50 mg/kg) injected intraperitoneally. A polyethylene tube was inserted into a vein at the groin and fixed in order to introduce angiotensin and, further, another polyethylene tube was inserted into an artery at the groin and fixed to measure the blood pressure thereof. The blood pressure was determined by the use of an electronic sphygmomanometer (Nihon Kohden Kogyo Co., Ltd. type MP-4T).
Each rat was injected with 300 ng/kg of angiotensin I and 100 ng/kg of angiotensin II through the vein at the groin and the blood pressure recorded periodically and the maximum value of the rise in the blood pressure resulting from the injection of angiotensin was determined for use as a control.
Then, the percentage of inhibitory effect was determined by orally administering 13.8 μM/kg of a compound of the invention to each rat, and injecting 300 ng/kg of angiotensin I and 100 ng/kg of angiotensin II into the vein at the groin at periods of 20, 60 or 120 minutes after the administration of the compound, with maximum blood pressures being determined by periodically measuring the blood pressure and comparing each maximum value obtained with that of the controls.

[2] = target: T1, angiotensin converting enzyme (ACE) (Oryctolagus cuniculus, UniProt P12822); assay: ACE inhibition in vitro with hippuryl-L-histidine-L-leucine as substrate (method of Biochemical Pharmacology, 20, 1637 (1971)); set-up: species or system rabbit (lung); settings: read-out: 50% inhibition concentration (ID50)
T1 construct: ACE extracted from rabbit lung and purified; from tissue; host or cells: rabbit lung
T1 sequence (P12822 34-1310): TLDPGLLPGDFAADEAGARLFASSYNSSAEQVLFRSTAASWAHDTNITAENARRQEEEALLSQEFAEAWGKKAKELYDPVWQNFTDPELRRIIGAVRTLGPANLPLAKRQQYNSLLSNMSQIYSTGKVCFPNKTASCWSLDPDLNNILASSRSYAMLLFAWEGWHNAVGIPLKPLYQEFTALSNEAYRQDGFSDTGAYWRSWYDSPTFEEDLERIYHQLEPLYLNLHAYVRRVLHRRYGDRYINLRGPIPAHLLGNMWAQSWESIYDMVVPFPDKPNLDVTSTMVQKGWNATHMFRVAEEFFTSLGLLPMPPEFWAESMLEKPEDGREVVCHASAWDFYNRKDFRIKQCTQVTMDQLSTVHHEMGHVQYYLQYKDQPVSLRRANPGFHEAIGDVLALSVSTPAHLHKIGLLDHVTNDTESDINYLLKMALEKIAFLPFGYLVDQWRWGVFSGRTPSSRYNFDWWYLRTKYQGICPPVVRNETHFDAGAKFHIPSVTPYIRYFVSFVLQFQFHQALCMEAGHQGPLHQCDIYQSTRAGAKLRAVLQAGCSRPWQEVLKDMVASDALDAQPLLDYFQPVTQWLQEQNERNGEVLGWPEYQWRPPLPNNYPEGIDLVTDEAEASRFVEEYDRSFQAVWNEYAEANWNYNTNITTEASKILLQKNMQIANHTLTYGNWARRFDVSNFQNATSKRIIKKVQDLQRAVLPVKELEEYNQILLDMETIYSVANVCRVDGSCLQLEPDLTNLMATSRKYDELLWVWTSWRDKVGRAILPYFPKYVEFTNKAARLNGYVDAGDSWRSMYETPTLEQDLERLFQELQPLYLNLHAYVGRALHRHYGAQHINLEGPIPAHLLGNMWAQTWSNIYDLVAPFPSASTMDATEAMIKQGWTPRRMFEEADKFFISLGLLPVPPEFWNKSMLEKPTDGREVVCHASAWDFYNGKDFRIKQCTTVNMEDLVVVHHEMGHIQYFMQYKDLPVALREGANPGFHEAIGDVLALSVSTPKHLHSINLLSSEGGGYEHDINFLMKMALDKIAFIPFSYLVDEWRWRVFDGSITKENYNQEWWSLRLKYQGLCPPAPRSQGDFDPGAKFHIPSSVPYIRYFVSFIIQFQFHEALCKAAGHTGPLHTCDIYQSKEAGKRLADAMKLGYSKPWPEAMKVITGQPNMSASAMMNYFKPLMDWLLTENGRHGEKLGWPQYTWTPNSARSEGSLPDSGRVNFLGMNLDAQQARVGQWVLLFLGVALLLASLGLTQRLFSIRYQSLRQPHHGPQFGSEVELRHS
Procedure: as §1
The compounds of the present invention act to inhibite angiotensin converting enzyme which converts angiotensin I, produced by the action of the enzyme renin from angiotensinogen, to angiotensin II which acts as a pressor agent. Therefore, these compounds may be expected to be effective in the treatment of hypertension.

| SMILES | Inhibition (%) ([1]; 20 min after oral 13.8 μM/kg) | Inhibition (%) ([1]; 60 min after oral 13.8 μM/kg) | Inhibition (%) ([1]; 120 min after oral 13.8 μM/kg) | IC50 [2] [nM] |
| --- | --- | --- | --- | --- |
| O=C(O)C1Cc2ccccc2C(=O)N1C(=O)CCS (centres unmarked) [Example 1, 2-(3-mercaptopropionyl)-1-oxo-1,2,3,4-tetrahydro-3-isoquinoline carboxylic acid] | 81 | 78 | 59 | 51 |
| CC(CS)C(=O)N1C(=O)c2ccccc2CC1C(=O)O (centres unmarked) [Example 2, 2-(3-mercapto-2-methylpropionyl)-1-oxo-1,2,3,4-tetrahydro-3-isoquinoline carboxylic acid] | 83 | 70 | 72 | 73 |
